{"source": "patent US7385027B2", "about": "“Membrane-permeable peptide capable of calpain inhibition” (University of Kentucky Research Foundation, priority 2003, dated 2008)", "key": {"calpain I": {"biological_target": "T1, calpain I (Homo sapiens, UniProt P07384)", "T1 sequence (P07384 1-714)": "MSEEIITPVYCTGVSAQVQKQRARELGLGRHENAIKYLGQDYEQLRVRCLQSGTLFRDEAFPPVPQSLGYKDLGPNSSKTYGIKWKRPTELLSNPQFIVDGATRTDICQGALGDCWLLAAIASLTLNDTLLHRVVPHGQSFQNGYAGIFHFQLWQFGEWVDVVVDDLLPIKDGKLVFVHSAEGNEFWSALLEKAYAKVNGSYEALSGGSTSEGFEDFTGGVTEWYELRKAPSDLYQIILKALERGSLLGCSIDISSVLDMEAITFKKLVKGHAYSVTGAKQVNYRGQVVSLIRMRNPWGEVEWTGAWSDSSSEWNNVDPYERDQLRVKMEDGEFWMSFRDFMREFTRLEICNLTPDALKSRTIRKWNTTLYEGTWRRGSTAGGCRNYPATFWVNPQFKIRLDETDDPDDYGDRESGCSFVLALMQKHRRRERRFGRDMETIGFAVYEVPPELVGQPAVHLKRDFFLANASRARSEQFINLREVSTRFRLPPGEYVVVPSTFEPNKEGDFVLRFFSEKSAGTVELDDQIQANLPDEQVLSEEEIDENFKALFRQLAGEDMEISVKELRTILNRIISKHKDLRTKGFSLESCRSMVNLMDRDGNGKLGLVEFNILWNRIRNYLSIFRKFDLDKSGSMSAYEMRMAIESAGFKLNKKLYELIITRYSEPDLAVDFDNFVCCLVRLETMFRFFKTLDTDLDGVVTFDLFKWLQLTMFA", "T1 sequence (P04632 1-268 partner)": "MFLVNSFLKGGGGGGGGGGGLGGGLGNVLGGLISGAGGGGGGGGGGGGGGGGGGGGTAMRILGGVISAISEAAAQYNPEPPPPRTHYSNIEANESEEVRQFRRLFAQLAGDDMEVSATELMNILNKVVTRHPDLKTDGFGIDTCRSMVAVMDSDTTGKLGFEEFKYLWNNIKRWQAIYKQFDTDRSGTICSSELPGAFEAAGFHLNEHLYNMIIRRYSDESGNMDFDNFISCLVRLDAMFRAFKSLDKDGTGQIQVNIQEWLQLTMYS", "assay": "Tau protein degradation by calpain I", "format": "biochemical", "conditions": "100 μM LSEAL; FIG. 3", "procedure": "Another experiment was conducted to show the effect of the proteins of the present invention on the tau protein. The tau protein is a microtubule-associated protein (MAP). Tau is a well-described calpain I substrate."}, "[1]": {"test_system": "cultured cortical neurons from rat brains", "assay": "Ionomycin-induced cell death of cultured cortical neurons (calcein AM / propidium iodide)", "format": "cell-based", "description": "(§1) In the first experiment, cell death of the neurons was induced by exposing the culture to ionomycin. In the second experiment, cell death was induced by exposing the neurons to 30 and 60 mJ/cm^2 of UV light. The exposure to either ionomycin or UV light caused calpain I to be activated because of ionomycin-mediated calcium flux or through UV-induced receptors, channels or pore-like structures. Calcein acetoxymethyl ester was used as indicator of live neuron cells while propidium iodide was used an indicator of dead neuron cells.\nIn the first experiment, ten Samples were prepared. Sample 1 was a control Sample and included the cultured cortical neurons only. A baseline for the average percentage of cell death was determined to be 19%. In Sample 2, 0.4 μM ionomycin was added to the cultured neuron cells to activate calpain I. No LSEAL was added to these Samples. The addition of ionomycin to these Samples caused the percentage of dead cells to more than triple to an average of 68%. Sample 3 was the same as Sample 2 except that 0.00001 micromolar of LSEAL was added before the ionomycin was added. The percentage of dead cells averaged of 106% of no LSEAL. Sample 4 was the same as Sample 3 except that 0.0001 micromolar of LSEAL was added. The percentage of cell death was 83% of no LSEAL. Sample 5 was the same as Sample 4 except that 0.001 micromolar LSEAL was added. The percentage of cell death was 63% of no LSEAL. Sample 6 was the same as Sample 5 except that 0.01 micromolar LSEAL was added. The percentage of cell death was 61% of no LSEAL. Sample 7 was the same as Sample 6 except that 0.1 micromolar LSEAL was added. The percentage of cell death was 57% of no LSEAL. Sample 8 was the same as Sample 7 except that 1.0 micromolar LSEAL was added. The percentage of cell death was 48% of no LSEAL. Sample 9 was the same as Sample 8 except that 10.0 micromolar LSEAL was added. The percentage of cell death was 35% of no LSEAL. Sample 10 was the same as Sample 9 except that 100 micromolar LSEAL was added. The percentage of cell death was 33% of no LSEAL. […] The results are summarized in Table 1 below and the results are graphically illustrated in FIG. 1"}, "[2]": {"test_system": "cultured cortical neurons from rat brains", "assay": "UV light-induced cell death of cultured cortical neurons", "format": "cell-based", "conditions": "for Dead Cells / Live Cells: cell count", "description": "as §1\nIn the second experiment, cell death of the cultured cortical neurons was induced by UV light. […] The percentage of cell death was 18%. Sample 14 is the same as Sample 11, except for the addition of 100 μM LSEAL to the culture. The percentage of cell death was reduced from 18% to 14%. Sample 12 was exposed to 30 mJ/cm^2 of UV light. The percentage of cell death was 58%. The inclusion of the LSEAL before exposure reduced the percentage of cell death to 25%. See Sample 15. […] The data for the experiment is set forth below in Tables 3 and 4, and is graphically illustrated in FIG. 2."}, "[3]": {"conditions": "0 mJ/cm^2 UV light, LSEAL (Sample 14)"}, "[4]": {"conditions": "30 mJ/cm^2 UV light, LSEAL (Sample 15)"}, "[5]": {"conditions": "60 mJ/cm^2 UV light, LSEAL (Sample 16)"}}}
{"substance": "Leu-Ser-Glu-Ala-Leu (LSEAL; listed as Homo sapiens)", "values": [{"measurement": "Effect on tau degradation by calpain I", "setting": "calpain I", "value": "inhibits degradation"}, {"measurement": "Percentage Average cell death (ratioed to 0 LSEAL)", "setting": "[1]; 0.00001 micromolar LSEAL added before 0.4 μM ionomycin (Sample 3)", "value": 106, "unit": "%"}, {"measurement": "Percentage Average cell death (ratioed to 0 LSEAL)", "setting": "[1]; 0.0001 micromolar LSEAL, 0.4 μM ionomycin (Sample 4)", "value": 83, "unit": "%"}, {"measurement": "Percentage Average cell death (ratioed to 0 LSEAL)", "setting": "[1]; 0.001 micromolar LSEAL, 0.4 μM ionomycin (Sample 5)", "value": 63, "unit": "%"}, {"measurement": "Percentage Average cell death (ratioed to 0 LSEAL)", "setting": "[1]; 0.01 micromolar LSEAL, 0.4 μM ionomycin (Sample 6)", "value": 61, "unit": "%"}, {"measurement": "Percentage Average cell death (ratioed to 0 LSEAL)", "setting": "[1]; 0.1 micromolar LSEAL, 0.4 μM ionomycin (Sample 7)", "value": 57, "unit": "%"}, {"measurement": "Percentage Average cell death (ratioed to 0 LSEAL)", "setting": "[1]; 1.0 micromolar LSEAL, 0.4 μM ionomycin (Sample 8)", "value": 48, "unit": "%"}, {"measurement": "Percentage Average cell death (ratioed to 0 LSEAL)", "setting": "[1]; 10.0 micromolar LSEAL, 0.4 μM ionomycin (Sample 9)", "value": 35, "unit": "%"}, {"measurement": "Percentage Average cell death (ratioed to 0 LSEAL)", "setting": "[1]; 100 micromolar LSEAL, 0.4 μM ionomycin (Sample 10)", "value": 33, "unit": "%"}, {"measurement": "% Dead Cells", "setting": "[2]; 0 mJ/cm^2 UV light, 100 μM LSEAL (Sample 14), control without LSEAL 18%", "value": 14, "unit": "%"}, {"measurement": "Dead Cells", "setting": "[2]; [3]", "value": 5}, {"measurement": "Live Cells", "setting": "[2]; [3]", "value": 30}, {"measurement": "Dead Cells", "setting": "[2]; [4]", "value": 26}, {"measurement": "Live Cells", "setting": "[2]; [4]", "value": 78}, {"measurement": "% Dead Cells", "setting": "[2]; 30 mJ/cm^2 UV light, LSEAL included before exposure (Sample 15), control without LSEAL 58%", "value": 25, "unit": "%"}, {"measurement": "Dead Cells", "setting": "[2]; [5]", "value": 25}, {"measurement": "Live Cells", "setting": "[2]; [5]", "value": 56}, {"measurement": "% Dead Cells", "setting": "[2]; 60 mJ/cm^2 UV light, culture containing LSEAL (Sample 16), control without LSEAL 74%", "value": 30, "unit": "%"}]}
